Source: ChEMBL document CHEMBL4152189, “Incorporation of nitric oxide donor into 1,3-dioxyxanthones leads to synergistic anticancer activity” (Eur J Med Chem, 2018)

How the values were obtained:
Type in all cases: functional, cell-based
HepG2 = test: Growth inhibition of human HepG2 cells after 24 hrs by MTT assay; conditions: HepG2, 24 h
MDA-MB-231 = test: Growth inhibition of human MDA-MB-231 cells after 24 hrs by MTT assay; conditions: MDA-MB-231, 24 h
MCF7 = test: Growth inhibition of human MCF7 cells after 24 hrs by MTT assay; conditions: MCF7, 24 h

| Structure (SMILES) | IC50 (HepG2) [µM] | IC50 (MDA-MB-231) [µM] | IC50 (MCF7) [µM] |
| --- | --- | --- | --- |
| O=[N+]([O-])OCCCCCCO | 52.6 | 90.4 | 89.7 |
| O=c1c2ccc(O)cc2oc2cc(OCCCCCCO[N+](=O)[O-])cc(O)c12 | 26.4 | 10.6 | > 200 |
| COc1cc2oc3cc(OCCCCCCO[N+](=O)[O-])cc(O)c3c(=O)c2cc1OC | 1.83 | 19.8 | 98.2 |
| O=c1c2cc(Cl)ccc2oc2cc(OCCCCCCO[N+](=O)[O-])cc(O)c12 | 6.03 | 9.74 | 13.3 |
| COc1cc2oc3cc(OCCCCCO[N+](=O)[O-])cc(O)c3c(=O)c2cc1OC | 6.35 | 45.6 | > 200 |
| O=[N+]([O-])OCCCO [ABRUCOMSTAT] | 111 | > 200 | > 200 |
| O=c1c2ccccc2oc2cc(OCCCCCCO[N+](=O)[O-])cc(O)c12 | 3.17 | 23.5 | 93.1 |
| O=c1c2ccccc2oc2cc(OCCCO[N+](=O)[O-])cc(O)c12 | 12.3 | 83.9 | > 200 |
| O=[N+]([O-])OCCCCO | 90.8 | 157 | > 200 |
| O=c1c2cc(Br)ccc2oc2cc(OCCCCCCO[N+](=O)[O-])cc(O)c12 | 1.21 | 15 | 43.5 |
| O=c1c2ccccc2oc2cc(OCCCCCO[N+](=O)[O-])cc(O)c12 | 4.08 | 40.7 | > 200 |
| O=c1c2cc(Cl)ccc2oc2cc(OCCCCCCCO[N+](=O)[O-])cc(O)c12 | 8.13 | 10.2 | 30.8 |
| O=c1c2cc(Br)ccc2oc2cc(OCCCCCO[N+](=O)[O-])cc(O)c12 | 2.65 | 11.1 | 73.2 |
| O=c1c2cc(Br)ccc2oc2cc(OCCCCCCCO[N+](=O)[O-])cc(O)c12 | 7.28 | 9.27 | 35.9 |
| COc1ccc2oc3cc(OCCCCO[N+](=O)[O-])cc(O)c3c(=O)c2c1 | 52.1 | 22.3 | 83.2 |
| COc1cccc2oc3cc(OCCCCCO)cc(O)c3c(=O)c12 | 23.7 | 41.1 | > 200 |
| O=c1c2cc(O)ccc2oc2cc(O)cc(O)c12 | > 200 | > 200 | > 200 |
| COc1cc2oc3cc(OCCCCCCCO[N+](=O)[O-])cc(O)c3c(=O)c2cc1OC | 13.2 | 67.6 | 163 |
| O=c1c2ccccc2oc2cc(OCCCCO[N+](=O)[O-])cc(O)c12 | 6.55 | 56.6 | > 200 |
| O=c1c2cc(Br)ccc2oc2cc(OCCCCO[N+](=O)[O-])cc(O)c12 | 10.1 | 11.2 | 42.9 |
| COc1ccc2oc3cc(OCCCCCO[N+](=O)[O-])cc(O)c3c(=O)c2c1 | 33.3 | 9.29 | 53.4 |
| COc1ccc2oc3cc(OCCCCCCCO[N+](=O)[O-])cc(O)c3c(=O)c2c1 | 42.1 | 16.2 | 71.2 |
| COc1ccc2oc3cc(OCCCCCCO[N+](=O)[O-])cc(O)c3c(=O)c2c1 | 13.6 | 3.05 | 41.1 |
| COc1ccc2oc3cc(OCCCO[N+](=O)[O-])cc(O)c3c(=O)c2c1 | 63.5 | 35.6 | 98.2 |
| COc1cccc2oc3cc(OCCCCCCO[N+](=O)[O-])cc(O)c3c(=O)c12 | 0.61 | 0.45 | 31 |

Results, then the compound that gave them:

| IC50 (HepG2) [µM] | IC50 (MDA-MB-231) [µM] | IC50 (MCF7) [µM] | Structure (SMILES) |
| --- | --- | --- | --- |
| 22.3 | 92.6 | 143 | O=c1c2cc(O)ccc2oc2cc(OCCCCO[N+](=O)[O-])cc(O)c12 |
| 43.1 | 33.3 | 74.3 | O=c1c2cc(Cl)ccc2oc2cc(OCCO[N+](=O)[O-])cc(O)c12 |
| 15.2 | 74.3 | 112 | O=c1c2cc(O)ccc2oc2cc(OCCCCCCCO[N+](=O)[O-])cc(O)c12 |
| 9.91 | 44.6 | 91.2 | O=c1c2cc(O)ccc2oc2cc(OCCCCCO[N+](=O)[O-])cc(O)c12 |
| 21.2 | 87.4 | > 200 | COc1cc2oc3cc(OCCCCO[N+](=O)[O-])cc(O)c3c(=O)c2cc1OC |
| 2.95 | 30.7 | 39.5 | Cc1ccc2c(=O)c3c(O)cc(OCCCCCO[N+](=O)[O-])cc3oc2c1 |
| 5.32 | 7.79 | 25.1 | O=c1c2cc(Cl)ccc2oc2cc(OCCCCCO[N+](=O)[O-])cc(O)c12 |
| 21.5 | 11.2 | 104 | COc1cccc2oc3cc(OCCO[N+](=O)[O-])cc(O)c3c(=O)c12 |
| 8.76 | 55.9 | 42.7 | Cc1ccc2c(=O)c3c(O)cc(OCCCCCCCO[N+](=O)[O-])cc3oc2c1 |
| 10.2 | 6.25 | 63 | COc1cccc2oc3cc(OCCCCO[N+](=O)[O-])cc(O)c3c(=O)c12 |
| 13.6 | 9.68 | 102 | COc1cccc2oc3cc(OCCCO[N+](=O)[O-])cc(O)c3c(=O)c12 |
| 17.4 | 27.8 | 53.4 | O=c1c2cc(Cl)ccc2oc2cc(OCCCO[N+](=O)[O-])cc(O)c12 |
| 91.7 | 130 | > 200 | COc1cc2oc3cc(OCCO[N+](=O)[O-])cc(O)c3c(=O)c2cc1OC |
| 53.6 | 112 | > 200 | COc1cc2oc3cc(OCCCO[N+](=O)[O-])cc(O)c3c(=O)c2cc1OC |
| 14 | 43.6 | > 200 | O=c1c2cc(Br)ccc2oc2cc(OCCCO[N+](=O)[O-])cc(O)c12 |
| 62.3 | 41.4 | 112 | O=c1c2ccc(O)cc2oc2cc(OCCCCCO[N+](=O)[O-])cc(O)c12 |
| 160 | 108 | > 200 | O=c1c2ccc(O)cc2oc2cc(OCCO[N+](=O)[O-])cc(O)c12 |

| IC50 (HepG2) [µM] | IC50 (MDA-MB-231) [µM] | IC50 (MCF7) [µM] | Structure (SMILES) |
| --- | --- | --- | --- |
| 10.1 | 11.2 | 42.9 | O=c1c2cc(Cl)ccc2oc2cc(OCCCCO[N+](=O)[O-])cc(O)c12 |
| 32.5 | 66 | > 200 | COc1cccc2oc3cc(O)cc(O)c3c(=O)c12 |
| > 200 | > 200 | > 200 | O=c1c2ccc(O)cc2oc2cc(O)cc(O)c12 |
| 12.8 | 78.4 | 62.8 | Cc1ccc2c(=O)c3c(O)cc(OCCCO[N+](=O)[O-])cc3oc2c1 |
| 5.26 | 4.29 | 53.5 | COc1cccc2oc3cc(OCCCCCCCO[N+](=O)[O-])cc(O)c3c(=O)c12 |
| 5.24 | 43.5 | 153 | O=c1c2ccccc2oc2cc(OCCCCCCCO[N+](=O)[O-])cc(O)c12 |
| 93.2 | > 200 | > 200 | COc1ccc2oc3cc(O)cc(O)c3c(=O)c2c1 |
| 76.2 | 51.5 | > 200 | O=c1c2ccc(O)cc2oc2cc(OCCCCCCCO[N+](=O)[O-])cc(O)c12 |
| 20.5 | 90.9 | > 200 | O=c1c2ccccc2oc2cc(OCCO[N+](=O)[O-])cc(O)c12 |
| 96 | 66.7 | > 200 | O=c1c2ccc(O)cc2oc2cc(OCCCCO[N+](=O)[O-])cc(O)c12 |
| 116 | 82.7 | > 200 | O=c1c2ccc(O)cc2oc2cc(OCCCO[N+](=O)[O-])cc(O)c12 |
| 33 | 134 | > 200 | O=c1c2cc(O)ccc2oc2cc(OCCCO[N+](=O)[O-])cc(O)c12 |
| 123 | > 200 | > 200 | COc1cc2oc3cc(O)cc(O)c3c(=O)c2cc1OC |
| 11.4 | 18.5 | 53.7 | O=c1c2cc(O)ccc2oc2cc(OCCCCCCO[N+](=O)[O-])cc(O)c12 |
| 10.6 | 62.9 | 47.7 | Cc1ccc2c(=O)c3c(O)cc(OCCCCO[N+](=O)[O-])cc3oc2c1 |
| 1.28 | 10.3 | 35.1 | Cc1ccc2c(=O)c3c(O)cc(OCCCCCCO[N+](=O)[O-])cc3oc2c1 |
